Reference: ChEMBL document CHEMBL5543088, “Targeting G-rich sequence to regulate the transcription of murine double minute (MDM) genes in triple-negative breast cancers” (Eur J Med Chem, 2024)
Active and inactive are the calls of the source. The rule behind the calls is not given here.

Legend:
MDA-MB-231 = experiment: Inhibition of cell proliferation in human MDA-MB-231 cells by MTT assay; format: functional, cell-based
[1] = Inhibition of cell proliferation in HUVEC cells by MTT assay; format: toxicity, cell-based; conditions: human
HCC1937 [2] = experiment: Inhibition of cell proliferation in human HCC1937 cells by MTT assay; format: functional, cell-based
[3] = Inhibition of cell proliferation in human HL7702 cells by MTT assay; format: toxicity, cell-based; conditions: HL7702 (L02) cells
HCC1806 = experiment: Inhibition of cell proliferation in human HCC1806 cells by MTT assay; format: functional, cell-based
RNA [4] = experiment: Binding affinity to TAMRA-labeled G1 mutant of MDM2 transfected in human HCC1937 cells at 3 uM incubated for 6 hrs by BG4 antibody based analysis; format: cell-based
HCC1937 [5] = experiment: Upregulation of MDMX level in human HCC1937 cells upto 6 uM incubated for 24 hrs by Western blot analysis; format: functional, cell-based
RNA [6] = experiment: Binding affinity to G1 of MDM2 (unknown origin) at 10 uM by CD spectrum assay; format: nucleic-acid assay; conditions: Homo sapiens
Quadruplex RNA [7] = experiment: Binding affinity to NRAS RNA G-quadruplex (unknown origin) assessed as thermal stability by measuring increase in melting temperature by FRET assay; format: nucleic-acid assay
RNA [8] = experiment: Binding affinity to TAMRA-labeled G5 mutant of MDMX transfected in human HCC1937 cells at 3 uM incubated for 6 hrs by BG4 antibody based analysis; format: cell-based
Quadruplex RNA [9] = experiment: Binding affinity to biotin-labeled NRAS RNA G-quadruplex (unknown origin) immobilized on SA biosensor assessed as dissociation constant by BLI assay; format: nucleic-acid assay
HCC1937 [10] = experiment: Downregulation of MDM2 level in human HCC1937 cells upto 6 uM incubated for 24 hrs by Western blot analysis; format: functional, cell-based
HCC1937 [11] = experiment: Induction of apoptosis in siMDMX-treated human HCC1937 cells at 6 uM (reference value: 55.8 %); format: functional
RNA [12] = experiment: Induction of G5 mutant of MDMX expressed in human HCC1937 cells upto 3 uM incubated for 24 hrs by luciferase reporter assay; format: cell-based
HCC1937 [13] = experiment: Inhibition of apoptosis in siMDM2-treated human HCC1937 cells at 6 uM (reference value: 55.8 %); format: functional
HCC1937 [14] = experiment: Downregulation of MDM2 mRNA level in human HCC1937 cells upto 3 uM by qPCR analysis; format: functional, cell-based
HCC1937 [15] = experiment: Upregulation of MDMX mRNA level in human HCC1937 cells upto 3 uM by qPCR analysis; format: functional, cell-based
HCC1937 [16] = experiment: Induction of apoptosis in siMDMX-treated human HCC1937 cells assessed as increase in cleaved caspase-3 level upto 6 uM by Western blot analysis; format: functional, cell-based
HCC1937 [17] = experiment: Inhibition of cell proliferation in siMDM2-treated human HCC1937 cells by MTT assay; format: functional, cell-based; conditions: dose <= 6.0 µM
RNA [18] = experiment: Binding affinity to G5 of MDMX (unknown origin) at 10 uM by CD spectrum assay; format: nucleic-acid assay; conditions: Homo sapiens, filed as activator
HCC1937 [19] = experiment: Upregulation of MDMX level in siMDM2-treated human HCC1937 cells upto 6 uM by Western blot analysis; format: functional, cell-based
Quadruplex DNA [20] = experiment: Binding affinity to biotin-labeled c-myc DNA G-quadruplex (unknown origin) immobilized on SA biosensor assessed as dissociation constant by BLI assay; format: nucleic-acid assay
HCC1937 [21] = experiment: Effect on DNAPKcs phosphorylation at Ser2056 in human HCC1937 cells upto 6 uM incubated for 24 hrs by Western blot analysis; format: functional, cell-based
Quadruplex DNA [22] = experiment: Binding affinity to c-myc DNA G-quadruplex (unknown origin) assessed as thermal stability by measuring increase in melting temperature by FRET assay; format: nucleic-acid assay
RNA [23] = experiment: Binding affinity to FAM/TAMRA-labeled G1 of MDM2 (unknown origin) assessed as thermal stability by measuring increase in melting temperature by FRET assay; format: nucleic-acid assay; conditions: Homo sapiens
HCC1937 [24] = experiment: Effect on H2AX phosphorylation at Ser139 in human HCC1937 cells upto 6 uM incubated for 24 hrs by Western blot analysis; format: functional, cell-based
RNA [25] = experiment: Binding affinity to TAMRA-labeled wild-type G1 of MDM2 transfected in human HCC1937 cells at 3 uM incubated for 6 hrs by BG4 antibody based analysis; format: cell-based
RNA [26] = experiment: Induction of wild-type G5 of MDMX expressed in human HCC1937 cells upto 3 uM incubated for 24 hrs by luciferase reporter assay; format: cell-based; conditions: filed as activator
HCC1937 [27] = experiment: Inhibition of cell proliferation in Nutlin3a-treated human HCC1937 cells by MTT assay; format: functional, cell-based
RNA [28] = experiment: Inhibition of wild-type G1 of MDM2 expressed in human HCC1937 cells upto 3 uM incubated for 24 hrs by luciferase reporter assay; format: cell-based
HCC1937 [29] = experiment: Inhibition of cell proliferation in human HCC1937 cells assessed as decrease in cell survival at 6 uM relative to control; format: functional
HCC1937 [30] = experiment: Inhibition of cell proliferation in siMDMX-treated human HCC1937 cells by MTT assay; format: functional, cell-based
HCC1937 [31] = experiment: Upregulation of MDMX level in siMDMX-treated human HCC1937 cells upto 6 uM by Western blot analysis; format: functional, cell-based
HCC1937 [32] = experiment: Effect on cell proliferation in human HCC1937 cells overexpressing BLM assessed as cell survival at 6 uM relative to control; format: functional; conditions: read-out: Activity
HCC1937 [33] = experiment: Induction of apoptosis in human HCC1937 cells assessed as increase in cleaved caspase-3 level upto 6 uM incubated for 24 hrs by Western blot analysis; format: functional, cell-based
HCC1937 [34] = experiment: Downregulation of MDM2 level in siMDMX-treated human HCC1937 cells upto 6 uM by Western blot analysis; format: functional, cell-based
RNA [35] = experiment: Binding affinity to FAM/TAMRA-labeled G5 of MDMX (unknown origin) assessed as thermal stability by measuring increase in melting temperature by FRET assay; format: nucleic-acid assay; conditions: Homo sapiens
RNA [36] = experiment: Inhibition of G1 mutant of MDM2 expressed in human HCC1937 cells upto 3 uM incubated for 24 hrs by luciferase reporter assay; format: cell-based
DNA = experiment: Binding affinity to biotin-labeled ss26 DNA (unknown origin) immobilized on SA biosensor assessed as dissociation constant by BLI assay; format: nucleic-acid assay
HCC1937 [37] = experiment: Induction of apoptosis in siMDM2-treated human HCC1937 cells assessed as increase in cleaved caspase-3 level upto 6 uM by Western blot analysis; format: functional, cell-based
RNA [38] = experiment: Binding affinity to TAMRA-labeled wild-type G5 of MDMX transfected in human HCC1937 cells at 3 uM incubated for 6 hrs by BG4 antibody based analysis; format: cell-based; conditions: filed as activator
dsDNA = experiment: Binding affinity to biotin-labeled ds26 DNA (unknown origin) immobilized on SA biosensor assessed as dissociation constant by BLI assay; format: nucleic-acid assay
RNA [39] = experiment: Binding affinity to biotin-labeled G5 of MDMX (unknown origin) immobilized on SA biosensor assessed as dissociation constant by BLI assay; format: nucleic-acid assay, Homo sapiens
RNA [40] = experiment: Binding affinity to biotin-labeled G1 of MDM2 (unknown origin) immobilized on SA biosensor assessed as dissociation constant by BLI assay; format: nucleic-acid assay, Homo sapiens
RNA [41] = experiment: Inhibition of wild-type G1 of MDM2 expressed in human HCC1937 cells upto 1 uM incubated for 24 hrs by luciferase reporter assay; format: cell-based
RNA [42] = experiment: Induction of wild-type G5 of MDMX expressed in human HCC1937 cells upto 1 uM incubated for 24 hrs by luciferase reporter assay; format: cell-based; conditions: filed as activator
HCC1937 [43] = experiment: Downregulation of MDMX level in human HCC1937 cells upto 3 uM incubated for 24 hrs by Western blot analysis; format: functional, cell-based
HCC1937 [44] = experiment: Downregulation of MDM2 level in human HCC1937 cells upto 3 uM incubated for 24 hrs by Western blot analysis; format: functional, cell-based
HCC1937 [45] = experiment: Effect on cell proliferation in human HCC1937 cells overexpressing BLM assessed as cell survival at 6 uM; format: functional, cell-based

## Cc1ccc(CSC(=N)N)cc1
MDA-MB-231
  IC50: > 50 µM
[1]
  IC50: > 50 µM
HCC1937 [2]
  IC50: > 50 µM
[3]
  IC50: > 50 µM
HCC1806
  IC50: > 50 µM

## N=C(N)SCc1c2ccccc2cc2ccccc12
MDA-MB-231
  IC50: 6 µM
[1]
  IC50: 9.6 µM
HCC1937 [2]
  IC50: 16.8 µM
[3]
  IC50: 20.7 µM
HCC1806
  IC50: 12.5 µM

## N=C(N)SCc1ccc([N+](=O)[O-])cc1
MDA-MB-231
  IC50: > 50 µM
[1]
  IC50: > 50 µM
HCC1937 [2]
  IC50: > 50 µM
[3]
  IC50: > 50 µM
HCC1806
  IC50: > 50 µM

## Brc1c2ccccc2c(C[P+](c2ccccc2)(c2ccccc2)c2ccccc2)c2ccccc12.[Br-]
RNA [4]
  Activity: inactive
HCC1937 [5]
  Activity: Active
RNA [6]
  Activity: Active
Quadruplex RNA [7]
  ΔTm: 0.1 °C
RNA [8]
  Activity: inactive
Quadruplex RNA [9]
  Kd: 24 µM
HCC1937 [10]
  Activity: Active
HCC1937 [11]
  Activity: ~70.4%
RNA [12]
  Activity: inactive
HCC1937 [13]
  inhibition at 6 µM: 30.6%
HCC1937 [14]
  Activity: Active
HCC1937 [15]
  Activity: Active
HCC1937 [16]
  Activity: Active
HCC1937 [17]
  inhibition: inactive
RNA [18]
  Activity: Active
HCC1937 [19]
  Activity: Active
Quadruplex DNA [20]
  Kd: 15.6 µM
HCC1937 [21]
  Activity: inactive
Quadruplex DNA [22]
  ΔTm: 18 °C
RNA [23]
  ΔTm: 33 °C
HCC1937 [24]
  Activity: inactive
HCC1937 [2]; dose <= 6.0 µM
  inhibition: Dose-Dependent Effect
RNA [25]
  Activity: Active
RNA [26]
  Activity: Active
HCC1937 [27]
  inhibition: inactive
RNA [28]
  inhibition: Active
HCC1937 [29]
  inhibition at 6 µM: 27.7%
HCC1937 [30]
  inhibition: Active
HCC1937 [31]
  Activity: Active
HCC1937 [32]
  viability at 6 µM: 85.3%
HCC1937 [33]
  Activity: Active
HCC1937 [34]
  Activity: Active
RNA [35]
  ΔTm: 30 °C
RNA [36]
  inhibition: inactive
DNA
  Kd: 10.8 µM
HCC1937 [37]
  Activity: inactive
RNA [38]
  Activity: Active
dsDNA
  Kd: 23.5 µM

## N=C(N)SCc1ccc2ccccc2c1
MDA-MB-231
  IC50: > 50 µM
[1]
  IC50: > 50 µM
HCC1937 [2]
  IC50: > 50 µM
[3]
  IC50: > 50 µM
HCC1806
  IC50: > 50 µM

## c1ccc([P+](Cc2c3ccccc3cc3ccccc23)(c2ccccc2)c2ccccc2)cc1
Quadruplex RNA [7]
  ΔTm: 0.2 °C
Quadruplex DNA [20]
  Kd: > 25 µM
Quadruplex DNA [22]
  ΔTm: 16.5 °C
RNA [23]
  ΔTm: 24 °C
RNA [39]
  Kd: 8.8 µM
RNA [35]
  ΔTm: 22 °C
RNA [40]
  Kd: 10.6 µM

## N=C(N)SCc1cccc2ccccc12
MDA-MB-231
  IC50: > 50 µM
[1]
  IC50: > 50 µM
HCC1937 [2]
  IC50: > 50 µM
[3]
  IC50: > 50 µM
HCC1806
  IC50: > 50 µM

## N=C(N)SCC1c2ccccc2CCc2ccccc21
MDA-MB-231
  IC50: 48 µM
[1]
  IC50: > 50 µM
HCC1937 [2]
  IC50: > 50 µM
[3]
  IC50: > 50 µM
HCC1806
  IC50: > 50 µM

## C[n+]1ccc(-c2c3nc(c(-c4cc[n+](C)cc4)c4ccc([nH]4)c(-c4cc[n+](C)cc4)c4ccc([nH]4)c(-c4cc[n+](C)cc4)c4nc2C=C4)C=C3)cc1
RNA [41]
  inhibition: Active
RNA [42]
  Activity: Active

## Cc1c2ccccc2c(CSC(=N)N)c2ccccc12
Quadruplex RNA [7]
  ΔTm: -0.2 °C
MDA-MB-231
  IC50: 2.1 µM
HCC1937 [43]
  Activity: Active
HCC1937 [44]
  Activity: Active
[1]
  IC50: 3.5 µM
HCC1937 [2]
  IC50: 6.4 µM
[3]
  IC50: 5 µM
HCC1937 [45]
  Activity: inactive
HCC1806
  IC50: 6.9 µM

## N=C(N)SCc1c2ccccc2c(Br)c2ccccc12
MDA-MB-231
  IC50: 8.2 µM
[1]
  IC50: 20.3 µM
HCC1937 [2]
  IC50: 6.4 µM
[3]
  IC50: 24.5 µM
HCC1806
  IC50: 3.5 µM

## N=C(N)SCc1c2ccccc2nc2ccccc12
MDA-MB-231
  IC50: > 50 µM
[1]
  IC50: > 50 µM
HCC1937 [2]
  IC50: > 50 µM
[3]
  IC50: > 50 µM
HCC1806
  IC50: > 50 µM

## Cc1c2ccccc2c(C[P+](c2ccccc2)(c2ccccc2)c2ccccc2)c2ccccc12
Quadruplex RNA [7]
  ΔTm: -0.4 °C
Quadruplex DNA [20]
  Kd: > 25 µM
Quadruplex DNA [22]
  ΔTm: 17 °C
RNA [23]
  ΔTm: 25 °C
RNA [39]
  Kd: 7.3 µM
RNA [35]
  ΔTm: 22 °C
RNA [40]
  Kd: 9.8 µM
